Legend:
[1] = biological target: T1, SOD1-A4V-Halo (Homo sapiens, UniProt P00441, A5V); test: In vitro heat-induced aggregation of SOD1-A4V-Halo conjugates; type: biochemical
From the text: (§1) (B-C) Excitation and emission spectra of 4 (with misfolded oligomers of SOD1-A4V-Halo) and 5 (with insoluble aggregates of SOD1-A4V-Halo).
The inventors installed Halo-tag reactive warhead to 2, resulting in 5.
Target sequence in this assay (P00441 with tags, fused parts or gaps A5V): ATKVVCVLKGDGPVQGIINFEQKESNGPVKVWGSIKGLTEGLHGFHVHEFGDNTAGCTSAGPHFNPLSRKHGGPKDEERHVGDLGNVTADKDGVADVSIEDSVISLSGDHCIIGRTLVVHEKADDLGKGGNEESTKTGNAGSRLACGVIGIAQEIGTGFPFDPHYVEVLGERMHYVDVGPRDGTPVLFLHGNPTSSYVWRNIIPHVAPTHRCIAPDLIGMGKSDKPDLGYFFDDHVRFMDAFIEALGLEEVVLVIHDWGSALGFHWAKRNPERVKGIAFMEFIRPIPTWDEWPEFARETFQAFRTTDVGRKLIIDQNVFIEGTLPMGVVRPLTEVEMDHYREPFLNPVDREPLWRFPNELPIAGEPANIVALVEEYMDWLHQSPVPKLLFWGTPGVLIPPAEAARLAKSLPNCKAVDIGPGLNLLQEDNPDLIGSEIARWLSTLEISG

[2] = biological target: T2, Htt-110Q-Halo (Homo sapiens, UniProt P42858); test: Two-color imaging of Htt-110Q-Halo in HEK293T cells; type: cell-based
T2 construct: using the Huntingtin exon 1 protein (Htt) with expansion of a polyglutamine tract within its N-terminal domain; expressed in transfected cells; host or cells: HEK293T
From the text: as §1
(§2) Combination of 4 and 5 enables a two-color imaging strategy to differentiate insoluble aggregates from soluble oligomers. The inventors carried out live cell imaging experiments, wherein 4 or 5 was used to visualize aggregation of POI-Halo fusion proteins in HEK293T cells. […] To this end, the inventors labeled HEK293T cells expressing SOD1-A4V-Halo simultaneously with 4 and 5 (both at 0.5 μM) for 24 h and treated cells with 5 μM MG132 for 8 h. […] The inventors further carried out experiments using Htt-PolyQ with 110 glutamine repeats (Htt-110Q-Halo).

[3] = system: Htt-110Q-Halo; test: as above; type: cell-based, human; settings: control
From the text: as §1, §2

[4] = biological target: T1, SOD1-A4V-Halo; test: Two-color imaging of SOD1-A4V-Halo in HEK293T cells under MG132; type: cell-based; parameters: expressed in transfected cells; host or cells: HEK293T; settings: 4 and 5 both at 0.5 μM, 5 μM MG132 for 8 h
From the text: as §1, §2
Target sequence in this assay (P00441 with tags, fused parts or gaps A5V limits assumed): as the sequence (P00441 with tags, fused parts or gaps A5V) above

[5] = 4 with misfolded oligomers, 5 with insoluble aggregates of SOD1-A4V-Halo

T2 sequence (P42858 with tags, fused parts or gaps): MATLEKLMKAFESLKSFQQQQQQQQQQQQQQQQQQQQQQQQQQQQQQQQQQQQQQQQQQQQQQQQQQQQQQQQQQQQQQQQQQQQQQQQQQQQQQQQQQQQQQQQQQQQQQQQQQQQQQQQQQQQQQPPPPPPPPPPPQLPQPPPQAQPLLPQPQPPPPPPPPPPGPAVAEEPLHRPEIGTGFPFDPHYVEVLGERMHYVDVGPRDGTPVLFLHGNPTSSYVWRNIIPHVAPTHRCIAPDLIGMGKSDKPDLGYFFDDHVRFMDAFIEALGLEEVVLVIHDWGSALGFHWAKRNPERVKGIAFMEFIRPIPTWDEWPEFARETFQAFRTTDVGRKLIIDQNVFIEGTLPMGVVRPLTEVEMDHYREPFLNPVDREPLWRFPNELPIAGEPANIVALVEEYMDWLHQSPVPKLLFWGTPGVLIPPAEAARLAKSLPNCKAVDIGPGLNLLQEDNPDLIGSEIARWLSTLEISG

molar extinction coefficient [1]: 23,716 M^−1·cm^−1
Em [1, 5]: 520 nm
Ex [1, 5]: 450 nm
fluorescence of Htt-110Q-Halo inclusions [2]: exhibit fluorescence from both 4 and 5
fluorescence of perinuclear SOD1 A4V-Halo granules [4]: dark fluorescence to a background level
SMILES: CC1=N/C(=C\c2ccc(N(C)C)cc2)C(=O)N1CC(=O)N[C@H]1CC[C@H](C(=O)NCCOCCOCCCCCCCl)CC1 [Compound 5]
fluorescence in cells co-expressing Halo-tag and Htt-110Q-mCherry [3]: fluorescence was not observed
